# From patent US10208074B2, “Pyrazole compounds and method for making and using the compounds” (Rigel Pharmaceuticals, Inc., priority 2015, dated 2019)
# Structures can show the parent of a compound that is named as a salt.
# Test system: IL-23p19
# Assay: LPS induced IL23p19 in THP-1 cells (with IFNγ primed) assay
# Assay type: cell-based, Human
# Details: Homo sapiens, THP-1, 18 h, THP-1 cells, IFNγ primed, LPS 1 ug/mL, 18 hours, 10 pt; read-out: IL23-p19 ELISA, THP1-IFNy, LPS, 10 pt EC50
# From the text: LPS Induced IL23p19 in THP-1 Cells (with IFNγ Primed) Assay
# THP-1 Cells (ATCC, Cat#TIB-202), Dimethyl Sulfoxide (DMSO) (Sigma-Aldrich, Cat#D2650), RPMI 1640 (Cellgro, Cat#10-040-CM), Fetal Bovine Serum (Sigma, Cat#F4135), Albumin From Bovine Serum (BSA) (Sigma-Aldrich, Cat#A7906), LPS (Serotype K-235, Sigma, Product Number L 2143), IFNγ (Peprotech, Cat#300-02) Capture antibody: Human IL-23p19 ELISA (e-Bioscience, Cat. #14-7238-85), Detection antibody: Primary Mouse Biotinylated anti-human IL-12(p40/p70) (e-Bioscience, Cat. #13-7129-85), Secondary HRP-conjugated Streptavidin (R&D Systems, Cat#DY998), 1×PBST Washing Buffer (PBS-Tween tablet) (VWR International, Cat#80058-558), ELISA Blocking Buffer (PBS with 1% BSA), ELISA Dilution Buffer (PBS with 1% BSA), 384 Well Flat-Bottom, MaxiSorp Black Immuno Plates (Thermo Scientific, Cat#12-565-346), 384 Well Flat-Bottom, White Tissue Culture Plates (Thermo Scientific, Cat#12-565-343), Super Signal ELISA Pico Chemiluminescent Substrate (Thermo Scientific, Cat#37070), Cell Titer Glo reagent (Promega, Cat#G7573), Positive control, IKK2VI inhibitor (Calbiochem, Cat#401483), AquaMax 4000 plate washer (Molecular Devices), Luminometer, Wallac Victor2 1420 Multilabel Counter.
# On day 1, 50K/well THP-1 cells were seeded and primed with IFNγ (50 ng/mL) in 384-well plates for about 18 hours in RPMI media with 10% FBS. On day 2, the compound was serially diluted in DMSO from 5 mM in 3-fold dilutions, and then diluted 1:125 in RPMI media with 10% FBS. 50 μL/well 2× compound was added to 50 μL/well THP-1 cells (with IFNγ primed) in duplicate in 384 well tissue culture plates. The cells were pre-incubated with compound for 1 hour at 37° C., 5% CO2 before addition of 10 μL/well 11×LPS to give a final concentration of 1 ug/mL LPS. Day 3, after stimulation for 18 hours at 37° C., 5% CO2, the assay plate was centrifuged and 70 μL/well supernatant was harvested. IL-23p19 protein in 70 μL/well of supernatant was measured by sandwich ELISA, and 25 μl/well Cell Titer Glo reagent was added to the remaining cells to measure compound toxicity.
# Maxisorp immuno ELISA plates were pre-coated with 25 μL/well of anti-IL-23p19 capture antibody (2.5 ug/mL) in PBS overnight at room temperature. After washing with 1× PBST, the plates were blocked using 100 μL/well of 1% BSA in PBS for 2 hours at room temperature. The plates were washed three times with 1×PBST and 70 μL/well supernatant were added. The plates were incubated at room temperature for 2 hours with shaking and washed three times with 1×PBST. 25 μL/well of biotin labeled anti-IL-12(p40/p70) detection antibody (100 ng/mL) in PBS with 1% BSA was added and the plates were incubated at room temperature for 2 hours with shaking. After washing three times with 1×PBST, 25 μL/well of streptavidin-HRP (1:200) in PBS with 1% BSA was added and the plates were incubated at room temperature for 20 minutes with shaking. The plates were washed three times with 1× PBST and 25 μL/well of Super Signal ELISA Pico Chemiluminescent Substrate were added. The plates were read with a luminometer, and the chemiluminescence values were entered into Athena (Rigel) for curve fitting, EC50 calculation, and database storage.
row,EC50,SMILES
1,4.22 µM,"CCCOCn1cc(NC(=O)c2ccc(-c3c[nH]c([N+](=O)[O-])c3)o2)c(-c2ccccn2)n1 [Compound I-24, 5-(5-nitro-1H-pyrrol-3-yl)-N-(1-(propoxymethyl)-3-(pyridin-2-yl)-1H-pyrazol-4-yl)furan-2-carboxamide]"
2,8.08 µM,"COc1ccc(Cn2cc(-c3nc(C(=O)Nc4cn(CC(O)C(F)(F)F)nc4-c4ccccn4)cs3)cn2)cc1 (stereo not shown) [II-103, 2-(1-(4-methoxybenzyl)-1H-pyrazol-4-yl)-N-(3-(pyridin-2-yl)-1-(3,3,3-trifluoro-2-hydroxypropyl)-1H-pyrazol-4-yl)thiazole-4-carboxamide]"
3,6.16 µM,"COc1ccc(Cn2cc(-c3nc(C(=O)Nc4cn(CCF)nc4-c4ccccn4)cs3)cn2)cc1 [II-52, N-(1-(2-fluoroethyl)-3-(pyridin-2-yl)-1H-pyrazol-4-yl)-2-(1-(4-methoxybenzyl)-1H-pyrazol-4-yl)thiazole-4-carboxamide]"
4,6.48 µM,"CCO[C@H]1C[C@@H](n2cc(NC(=O)c3csc(-c4cn[nH]c4)n3)c(C(F)(F)F)n2)C1 [II-62, N-(1-((1s,3s)-3-ethoxycyclobutyl)-3-(trifluoromethyl)-1H-pyrazol-4-yl)-2-(1H-pyrazol-4-yl)thiazole-4-carboxamide]"
5,0.109 µM,"CCO[C@H]1C[C@@H](n2cc(NC(=O)c3csc(-c4c(C)n[nH]c4C)n3)c(-c3ccccn3)n2)C1 [II-93, 2-(3,5-dimethyl-1H-pyrazol-4-yl)-N-(1-((1,3-cis)-3-ethoxycyclobutyl)-3-(pyridin-2-yl)-1H-pyrazol-4-yl)thiazole-4-carboxamide]"
6,24.1 µM,"COc1ccc(Cn2cc(-c3nc(C(=O)Nc4c[nH]nc4-c4ccccn4)cs3)cn2)cc1 [II-53, 2-(1-(4-methoxybenzyl)-1H-pyrazol-4-yl)-N-(3-(pyridin-2-yl)-1H-pyrazol-4-yl)thiazole-4-carboxamide]"
7,5.55 µM,"COc1ccc(Cn2cc(-c3nc(C(=O)Nc4cn(C(=O)N(C)C)nc4-c4ccccn4)cs3)cn2)cc1 [II-105, N-(1-(dimethylcarbamoyl)-3-(pyridin-2-yl)-1H-pyrazol-4-yl)-2-(1-(4-methoxybenzyl)-1H-pyrazol-4-yl)thiazole-4-carboxamide]"
8,3.76 µM,"O=C(Nc1cn(C2CCC2)nc1-c1ccccn1)c1ccc(-c2cnn(C3CCC3)c2)o1 [Compound I-122, 5-(1-cyclobutyl-1H-pyrazol-4-yl)-N-(1-cyclobutyl-3-(pyridin-2-yl)-1H-pyrazol-4-yl)furan-2-carboxamide 2,2,2-trifluoroacetate]"
9,24.6 µM,"O=C(Nc1cn(C(F)F)nc1-c1ccccn1)c1csc(-c2cnn(C(F)F)c2)n1 [II-98, 2-(1-(difluoromethyl)-1H-pyrazol-4-yl)-N-(1-(difluoromethyl)-3-(pyridin-2-yl)-1H-pyrazol-4-yl)thiazole-4-carboxamide]"
10,0.206 µM,"Cn1cc(NC(=O)c2csc(-c3cn[nH]c3)n2)c(C#N)n1 [II-137, N-(3-cyano-1-methyl-1H-pyrazol-4-yl)-2-(1H-pyrazol-4-yl)thiazole-4-carboxamide]"
11,1.38 µM,"COCCOCCn1cc(-c2ccc(C(=O)Nc3cn(CCOCCOC)nc3-c3ccccn3)o2)cn1 [Compound I-52, 5-(1-(2-(2-methoxyethoxy)ethyl)-1H-pyrazol-4-yl)-N-(1-(2-(2-methoxyethoxy)ethyl)-3-(pyridin-2-yl)-1H-pyrazol-4-yl)furan-2-carboxamide formate]"
12,0.377 µM,"O=C(Nc1cn(C(=O)N2CCOCC2)nc1-c1ccccn1)c1csc(-c2cn[nH]c2)n1 [II-129, N-(1-(morpholine-4-carbonyl)-3-(pyridin-2-yl)-1H-pyrazol-4-yl)-2-(1H-pyrazol-4-yl)thiazole-4-carboxamide]"
13,20.3 µM,"Cn1cc(NC(=O)c2coc(-c3cnn(CC4CC4)c3)n2)c(-c2ccccn2)n1 [III-1, 2-(1-(cyclopropylmethyl)-1H-pyrazol-4-yl)-N-(1-methyl-3-(pyridin-2-yl)-1H-pyrazol-4-yl)oxazole-4-carboxamide]"
14,0.615 µM,"CC1(O)CC(n2cc(NC(=O)c3csc(-c4cn[nH]c4)n3)c(-c3ccccn3)n2)C1 (stereo not shown) [II-87, N-(1-(3-hydroxy-3-methylcyclobutyl)-3-(pyridin-2-yl)-1H-pyrazol-4-yl)-2-(1H-pyrazol-4-yl)thiazole-4-carboxamide]"
15,26.2 µM,"CCO[C@H]1C[C@@H](n2cc3c(n2)CCCN3C(=O)c2csc(-c3cn[nH]c3)n2)C1 [II-67, (2-(1H-pyrazol-4-yl)thiazol-4-yl)(2-((1s,3s)-3-ethoxycyclobutyl)-2,5,6,7-tetrahydro-4H-pyrazolo[4,3-b]pyridin-4-yl)methanone]"

# Same assay, conditions: Homo sapiens, THP-1, 18 h, read-out: IL23-p19 ELISA, THP1-IFNy, LPS, 10 pt EC50 (μM)
row,SMILES,EC50
1,"CCOP(=O)(Cn1cc(-c2nc(C(=O)Nc3cn(C)nc3-c3ccccn3)cs2)cn1)OCC [II-7, diethyl ((4-(4-((1-methyl-3-(pyridin-2-yl)-1H-pyrazol-4-yl)carbamoyl)thiazol-2-yl)-1H-pyrazol-1-yl)methyl)phosphonate]",6.09 µM
